Measurements: patent publication US8871753B2, “Macrocyclic compounds and their use as kinase inhibitors” (Incyte Corporation, priority 2008, dated 2014)
pIC50: −log10 of the molar value.

Key:
[1] = molecular target: T1, human JAK2 (a.a. 828-1132) (Homo sapiens, UniProt O60674); test: In vitro JAK kinase assay (HTRF, phosphorylation of a biotinylated peptide), JAK2; assay type: biochemical; conditions: Table D1
T1 construct: JAK2 (a.a. 828-1132); His tag (N); made in house; host or cells: insect cells (baculovirus)
T1 sequence (O60674 828-1132): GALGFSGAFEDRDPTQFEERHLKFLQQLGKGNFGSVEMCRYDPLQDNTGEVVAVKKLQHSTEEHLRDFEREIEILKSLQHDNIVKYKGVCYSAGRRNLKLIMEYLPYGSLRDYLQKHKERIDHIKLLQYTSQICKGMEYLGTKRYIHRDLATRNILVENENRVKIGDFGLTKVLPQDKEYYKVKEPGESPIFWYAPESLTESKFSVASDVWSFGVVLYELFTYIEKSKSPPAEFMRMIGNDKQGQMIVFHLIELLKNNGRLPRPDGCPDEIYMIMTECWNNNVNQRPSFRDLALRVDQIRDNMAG
Protocol: (§1) The catalytic activity of JAK1, JAK2 or JAK3 was assayed by measuring the phosphorylation of a biotinylated peptide. The phosphorylated peptide was detected by homogenous time resolved fluorescence (HTRF). […] The ATP concentration in the reactions was 90 μM for JAK1, 30 μM for JAK2 and 3 μM for JAK3. Reactions were carried out at room temperature for 1 hr and then stopped with 20 μL 45 mM EDTA, 300 nM SA-APC, 6 nM Eu-Py20 in assay buffer (Perkin Elmer, Boston, Mass.). Binding to the Europium labeled antibody took place for 40 minutes and HTRF signal was measured on a Fusion plate reader (Perkin Elmer, Boston, Mass.).
(§2) The catalytic activity of JAK1, JAK2 or JAK3 was assayed by measuring the phosphorylation of a biotinylated peptide. The phosphorylated peptide was detected by homogenous time resolved fluorescence (HTRF). […] Reactions were carried out at room temperature for 1 hr and then stopped with 20 μL 45 mM EDTA, 300 nM SA-APC, 6 nM Eu-Py20 in assay buffer (Perkin Elmer, Boston, Mass.). Binding to the Europium labeled antibody took place for 40 minutes and HTRF signal was measured on a Fusion plate reader (Perkin Elmer, Boston, Mass.).

[2] = molecular target: T2, human JAK1 (a.a. 837-1142) (Homo sapiens, UniProt P23458); test: In vitro JAK kinase assay (HTRF, phosphorylation of a biotinylated peptide), JAK1; assay type: biochemical; conditions: Table D1; read-out: JAK1 IC50
T2 construct: human JAK1 (a.a. 837-1142); His tag (N); made in house; host or cells: insect cells (baculovirus)
T2 sequence (P23458 849-1154): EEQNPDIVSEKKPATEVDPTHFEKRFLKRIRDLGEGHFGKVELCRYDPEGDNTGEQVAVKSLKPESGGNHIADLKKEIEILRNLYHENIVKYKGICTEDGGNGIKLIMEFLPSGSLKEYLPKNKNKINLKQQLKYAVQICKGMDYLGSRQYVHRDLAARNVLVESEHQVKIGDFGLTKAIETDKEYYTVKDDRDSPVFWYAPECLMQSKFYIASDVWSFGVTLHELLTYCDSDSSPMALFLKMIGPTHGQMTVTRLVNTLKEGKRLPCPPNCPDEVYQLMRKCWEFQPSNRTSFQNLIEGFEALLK
Protocol: as §1, §2

Compound	pIC50 [1]	pIC50 [2]
CS(=O)(=O)N1CC[C@H](CC(=O)Nc2ccc3cc2CCc2cncc(c2)Nc2ncc(Cl)c(n2)N3)C1 [Example D112, N-[6-Chloro-2,4,8,18,22-pentaazatetracyclo[14.3.1.1(3,7).1(9,13)]docosa-1(20),3(22),4,6,9(21),10,12,16,18-nonaen-12-yl]-2-[(3R)-1-(methylsulfonyl)pyrrolidin-3-yl]acetamide bis(trifluoroacetate)]	6.85	8.00
O=C(C[C@@H]1CCN(C(=O)Nc2ccccc2)C1)Nc1ccc2cc1CCc1cncc(c1)Nc1ncc(Cl)c(n1)N2 [Example D113, (3S)-3-(2-{[6-Chloro-2,4,8,18,22-pentaazatetracyclo[14.3.1.1(3,7).1(9,13)]docosa-1(20),3(22),4,6,9(21),10,12,16,18-nonaen-12-yl]amino}-2-oxoethyl)-N-phenylpyrrolidine-1-carboxamide bis(trifluoroacetate)]	6.79	7.96
N#Cc1ccc(NC(=O)N2CC[C@@H](CC(=O)Nc3ccc4cc3CCc3cncc(c3)Nc3ncc(Cl)c(n3)N4)C2)cc1 [Example D114, (3S)-3-(2-{[6-Chloro-2,4,8,18,22-pentaazatetracyclo[14.3.1.1(3,7).1(9,13)]docosa-1(20),3(22),4,6,9(21),10,12,16,18-nonaen-12-yl]amino}-2-oxoethyl)-N-(4-cyanophenyl)pyrrolidine-1-carboxamide bis(trifluoroacetate)]	7.08	8.05
N#Cc1cccc(NC(=O)N2CC[C@@H](CC(=O)Nc3ccc4cc3CCc3cncc(c3)Nc3ncc(Cl)c(n3)N4)C2)c1 [Example D115, (3S)-3-(2-{[6-Chloro-2,4,8,18,22-pentaazatetracyclo[14.3.1.1(3,7).1(9,13)]docosa-1(20),3(22),4,6,9(21),10,12,16,18-nonaen-12-yl]amino}-2-oxoethyl)-N-(3-cyanophenyl)pyrrolidine-1-carboxamide bis(trifluoroacetate)]	6.79	7.72
N#Cc1ccccc1NC(=O)N1CC[C@@H](CC(=O)Nc2ccc3cc2CCc2cncc(c2)Nc2ncc(Cl)c(n2)N3)C1 [Example D116, (3S)-3-(2-{[6-Chloro-2,4,8,18,22-pentaazatetracyclo[14.3.1.1(3,7).1(9,13)]docosa-1(20),3(22),4,6,9(21),10,12,16,18-nonaen-12-yl]amino}-2-oxoethyl)-N-(2-cyanophenyl)pyrrolidine-1-carboxamide bis(trifluoroacetate)]	6.24	7.64

The remaining lines, values ahead:

pIC50 [1]	pIC50 [2]	Compound
6.72	7.80	Cc1cc(C(=O)N2CC[C@H](CC(=O)Nc3ccc4cc3CCc3cncc(c3)Nc3ncc(Cl)c(n3)N4)C2)no1 [Example D109, N-[6-Chloro-2,4,8,18,22-pentaazatetracyclo[14.3.1.1(3,7).1(9,13)]docosa-1(20),3(22),4,6,9(21),10,12,16,18-nonaen-12-yl]-2-{(3R)-1-[(5-methylisoxazol-3-yl)carbonyl]pyrrolidin-3-yl}acetamide bis(trifluoroacetate)]
6.65	7.66	O=C(C[C@H]1CCN(C(=O)c2nccs2)C1)Nc1ccc2cc1CCc1cncc(c1)Nc1ncc(Cl)c(n1)N2 [Example D110, N-[6-Chloro-2,4,8,18,22-pentaazatetracyclo[14.3.1.1(3,7).1(9,13)]docosa-1(20),3(22),4,6,9(21),10,12,16,18-nonaen-12-yl]-2-[(3R)-1-(1,3-thiazol-2-ylcarbonyl)pyrrolidin-3-yl]acetamide bis(trifluoroacetate)]
6.16	7.21	Cn1cncc1C(=O)N1CC[C@H](CC(=O)Nc2ccc3cc2CCc2cncc(c2)Nc2ncc(Cl)c(n2)N3)C1 [Example D111, N-[6-Chloro-2,4,8,18,22-pentaazatetracyclo[14.3.1.1(3,7).1(9,13)]docosa-1(20),3(22),4,6,9(21),10,12,16,18-nonaen-12-yl]-2-{(3R)-1-[(1-methyl-1H-imidazol-5-yl)carbonyl]pyrrolidin-3-yl}acetamide tris(trifluoroacetate)]
